The values below come from EPA's ToxValDB 9.5 (doi:10.2903/j.efsa.2006.58r).

In one series the test system is Oncorhynchus mykiss. To be noted: acute; duration: 96 hours; mortality.
For the next series, the system named is Pontoscolex corethrurus. To be noted: for NOEC: chronic/long-term.
For another series, the system named is Anas platyrhynchos. The settings on record: acute; oral; unspecified; mortality.
A further series relates to Apis mellifera. The settings on record: acute, mortality.
The test system of a further series is Pimephales promelas. The settings on record: chronic/long-term; duration: 32 days.
In a further series the test system is Plant. The settings on record: not reported; no effects.
Another series has as its system Bibionidae. The settings on record: chronic/long-term; duration: 40 days.
The test system of the next series is Daphnia magna. The settings on record: chronic/long-term; duration: 21 days.
Another series has as its system Aphidius rhopalosiphi. In words: LR50; higher = less toxic. The settings on record: not reported; mortality.
The next series relates to Typhlodromus pyri. In words: LR50; higher = less toxic. To be noted: not reported; mortality.

In the case of `COc1cc(C)c(C(=O)c2c(OC)ccc(Br)c2C)c(OC)c1OC` [Metrafenone], the LC50 was > 0.82 µg/mL in the series with Oncorhynchus mykiss and > 250 mg/kg in the series with Pontoscolex corethrurus (acute, mortality). Besides, the NOEC with Pontoscolex corethrurus was 10.4 mg/kg; with Pontoscolex corethrurus (reproduction), 3 mg/kg; in the series with Pimephales promelas it was 0.228 mg/L; in the series with Colinus virginianus (reproduction developmental) it was 125 mg/kg-day; in the series on Colinus virginianus (short-term, oral, diet) it was > 948 mg/kg-day; in the series with Bibionidae, 1 mg/L. In the series with Daphnia magna, this compound had an NOEC of 0.225 mg/L. Further, the LD50 in the series on Anas platyrhynchos was > 2020 mg/kg-day; in the series with Apis mellifera (dermal), > 100 µg/piece; in the series with Apis mellifera (oral, unspecified) it was > 114 µg/piece; in the series with Rattus norvegicus (acute, oral, mortality) it was > 5000 mg/kg-day. In addition, the NOAEL in the series on Rattus norvegicus (chronic, duration: 2 years, oral, histopathology: neoplastic) stood at 25 mg/kg-day; in the series with Rattus norvegicus (reproduction developmental) it was 811 mg/kg-day; in the series on Rattus norvegicus (subchronic, duration: 13 weeks, oral, organ weight), 43 mg/kg-day. In addition, the LEL in the series with Plant is 300 g/ha. The LR50 with Aphidius rhopalosiphi is > 300 g/ha; in the series on Typhlodromus pyri, > 500 g/ha.
